Here are results for six molecules from patent publication US20110033488A1, “AGENTS AND METHODS FOR TREATMENT OF ANXIETY DISORDERS” (Yeda Research and Development Co. Ltd., priority 2008, published 2011).

For series [1], the system named is ICAM-1 on choroid plexus cells (ECACC # 00031626). Kind of series: ICAM-1 expression on choroid plexus cell line. The series is classed as cell-based, rat. The settings on record: for ICAM-1 expression: 24 hrs. The procedure:
(iv) Choroid Plexus endothelial cell culture. RCP cells (ECACC # 00031626, a kind gift from Dr. A. Chen, Weizmann Institute) (Battle et al., 2000) were cultured at 37° C. under 95% air/5% CO2 in DMEM medium containing 10% FCS, 100 U/ml penicillin, […], 1% insulin-transferrin-selenium mix (Sigma-Aldrich) and 0.1% Epidermal Growth Factor ([…]). The culture medium was changed every 2 days.
CPx cultures grown on cover slips were washed with PBS, and fixed as described above. The fixed cells were then treated with a blocking solution containing 10% FCS, 2% bovine serum albumin, 1% glycine, and 0.1% Triton X-100 (Sigma-Aldrich), and stained with hamster anti-mouse CD54 (ICAM-1) (Chemicon).

The test system of another series is mice. The settings on record: one immunization with 100 μg peptide, without pertussis toxin.
Where [2] appears, read: all concentrations tested (1-100 ng/ml).

Peptide text beside a SMILES is read from it.

For IL-6: cytokine, in series [1] (setting [2]), the ICAM-1 expression entry was “no effect”.
For the molecule TNF-α, in series [1] (setting [2]), the ICAM-1 expression result is listed as “significant elevation”.
For `CSCC[C@H](N)C(=O)N[C@@H](CCC(=O)O)C(=O)N[C@H](C(=O)NCC(=O)N[C@@H](Cc1c[nH]c2ccccc12)C(=O)N[C@@H](Cc1ccc(O)cc1)C(=O)N[C@@H](CCCNC(=N)N)C(=O)N[C@@H](CO)C(=O)N1CCC[C@H]1C(=O)N[C@@H](Cc1ccccc1)C(=O)N[C@@H](CO)C(=O)N[C@@H](CCCNC(=N)N)C(=O)N[C@H](C(=O)N[C@H](C(=O)N[C@@H](Cc1c[nH]cn1)C(=O)N[C@@H](CC(C)C)C(=O)N[C@@H](Cc1ccc(O)cc1)C(=O)N[C@@H](CCCNC(=N)N)C(=O)N[C@@H](CC(N)=O)C(=O)NCC(=O)N[C@@H](CCCCN)C(=O)O)C(C)C)C(C)C)C(C)C` [pMOG35-55] (H-MEVGWYRSPFSRVVHLYRNGK-OH; N-terminus and C-terminus assumed), in the series on mice, the “Induction of EAE” value is recorded as “no EAE was induced”.
For the molecule `C[C@]12C[C@H](O)[C@H]3[C@@H](CCC4=CC(=O)CC[C@@]43C)[C@@H]1CC[C@@H]2C(=O)CO` [corticosterone, reference compound], the “Concentration of peak ICAM-1 expression” value in series [1] (24 hrs incubation) came out at 1 ng/mL. For the same molecule, the ICAM-1 expression result in series [1] (higher doses 20 ng/ml and 50 ng/ml) was “significantly inhibited”; in series [1] (lower doses 1 ng/ml and 5 ng/ml) it was “significantly elevated”.
IFN-γ: cytokine: the ICAM-1 expression result in series [1] (higher concentrations) was “significant inhibition”; in series [1] (lower concentrations (1 ng and 10 ng)) it was “inactive”.

B1: IL-10: cytokine (protein, UniProt P22301 19-178, looked up)
Interleukin-10: SPGQGTQSENSCTHFPGNLPNMLRDLRDAFSRVKTFFQMKDQLDNLLLKESLLEDFKGYLGCQALSEMIQFYLEEVMPQAENQDPDIKAHVNSLGENLKTLRLRLRRCHRFLPCENKSKAVEQVKNAFNKLQEKGIYKAMSEFDIFINYIEAYMTMKIRN
For the molecule B1, the ICAM-1 expression result in series [1] (setting [2]) is listed as “significantly reduced”.
